According to paper PMC5397431, “Multigeneration toxicity of imidacloprid and thiacloprid to Folsomia candida” (Ecotoxicology (London, England), 2017):
Where “and” joins values, the source holds several entries; their conditions need not be identical. Equal values may be shown once. Read-outs that look alike come from different tables or passages of the source.

What was measured:
[1] = system: Folsomia candida; details: 28 days, LUFA 2.2 soil
Method: Tests were performed in 100 ml glass jars, containing c. 30 g moist soil, using five replicate test jars for each exposure concentration. Each jar received ten 10–12 day old animals from age-synchronized cultures, after checking their health under a binocular microscope. The animals were fed with a few grains of dry baker’s yeast (Instant yeast from Algist Bruggeman N.V, Ghent, Belgium) weekly, in small amounts to avoid fungal growth. All incubations took place at 20 ± 2 °C at 75% Relative Humidity and a photoperiod of 16:8 dark: light hours. Test jars were weighed at the start, so that water loss could be monitored on a weekly basis and replenished with deionized water if needed. After exposure, all animals were extracted by flotation and pictures were taken to enable counting the number of surviving adults and juveniles produced using the software package ImageJ with a Cell Counter extension.
If no proper fit was obtained, LC50 values were calculated using the trimmed Spearman-Karber method (Hamilton et al. [1977]/78). No observed effect concentrations (NOEC) were determined applying a one-way ANOVA followed by a one-sided Dunnett’s post hoc test at a significance level of p < 0.05. All statistical analysis, except for the Trimmed Spearman Karber method, were run in SPSS 23.

[2] = system: Folsomia candida; details: cited from earlier work
[3] = cited from earlier work
[4] = Chemical analysis of concentrations in test soil (LC-MS) and degradation half-life (DT50); format: physicochemical; details: for concentration, % of the nominal concentration: after 63 days
Method: Soil samples for chemical analysis of imidacloprid and thiacloprid in the test soil were taken at the start of the exposure of each new generation.
The analytical method to determine actual imidacloprid and thiacloprid concentrations in the test soils followed the principles of the QuEChERS extraction method modified from Anastasiades et al. ([2003]) and Payá et al. ([2007]). Briefly, the procedure used was as follows: approx. 1 g moist soil was taken for low concentration treatments (<1 mg/kg), and 50 µL internal standard (Imidacloprid-d4 and Thiacloprid-d4, 250 µg/L) was added. The sample was shaken for 20 min at 250 rpm with 2 mL methanol and centrifuged for 3 min at 1500 rpm. The methanol phase was passed through a granular Na2SO4 column, evaporated till dryness and the residue taken up in 3 mL acetonitrile. For high concentration samples (>1 mg/kg), the soil was first shaken with methanol and centrifuged. Subsequently an aliquot of 100 µL was taken and together with 50 µL internal standard (Imidacloprid-d4 and Thiacloprid-d4, 250 µg/L) added to 1 mL methanol, passed through a granular Na2SO4 column, evaporated to dryness and taken up in 3 mL acetonitrile. For clean-up, the acetonitrile extract was added to a tube filled with Supel QuE (C18 150 mg, PSA 150 mg, MgSO4 900 mg, Sigma Aldrich), shaken by hand for 2 min and centrifuged for 3 min at 3000 rpm. The supernatant was evaporated till dryness under gentle nitrogen stream and the residue taken up in 200 µL of a water-methanol (9/1) mixture.
Extracts were analyzed using LC-MS and quantified by isotope dilution (imidacloprid-d4 and thiacloprid-d4). The neonicotinoids were separated on a 100 × 2.1 mm, 2.6 µm Kinetex XB-C18 column (Phenomenex), applying a gradient of 5 mM ammonium formate pH 4 buffer and methanol, at a flow rate of 0.3 mL/min. The LC system (Agilent 1200 series) was coupled to a 6410 triple quadrupole MS (Agilent) using electrospray ionization (ESI) with data acquisition in positive ion mode. The transitions for imidacloprid were 256.1 > 175/209 (quantifier/qualifier) and for imidacloprid-d4 260 > 179. For thiacloprid the transitions were253.1 > 126/90 (quantifier/qualifier) with 257 > 126 for thiacloprid-d4.
Using data on the imidacloprid and thiacloprid concentrations measured at different times after spiking the soil in the multigeneration test, half-life (DT50) values were estimated assuming first order degradation kinetics. The equation C = C0 * e^−k*t was fitted to the data, with C = concentration at time t in days, C0 is concentration at t = 0 and k = degradation rate constant (day^−1). DT50 was derived as ln(2) / k.

[5] = system: Folsomia candida; experiment: Multigeneration toxicity test (survival and reproduction) with springtails in spiked LUFA 2.2 soil; format: in vivo; details: for EC10 / EC50: number of juveniles
Method: F. candida were taken from cultures at the Department of Ecological Science at the Vrije Universiteit in Amsterdam. To obtain age-synchronized animals, adults from the culture were separated in boxes with a layer of plaster of Paris over a period of 2–3 days to lay eggs, after which they were removed. After removal of the adults, the eggs were incubated under a 12 h light/12 h dark regime at 20 °C and 75% relative humidity, where they hatched and grew. Juveniles of 10–12 days old were used for testing.
All tests were performed in the natural standard LUFA 2.2 (Lufa Speyer, Germany), a loamy sand with 1.59 ± 0.13% organic carbon, pH in 0.01 M CaCl2 of 5.4 ± 0.2, and water holding capacity (WHC) of 43.5 ± 2.8% of its dry weight.
Pure imidacloprid and thiacloprid (purity 98%) were kindly provided by Bayer CropScience, Monheim, Germany. Test concentrations of imidacloprid and thiacloprid were based on the results of earlier tests. Stock solution of both compounds in water were prepared, to spike the chemicals into the soil and at the same time bringing moisture content to the desired level of 50% of the WHC. To ensure complete thiacloprid dissolution, a small amount of acetone was added to the stock solution. This stock solution was used to spike soil with the highest test concentration and further diluted for spiking soil with the lower concentrations tested. Considering the low amount of acetone needed to make thiacloprid completely dissolve, no attempts were made to correct for that by adding acetone to the lower concentrations and control in the multigeneration test. All soils were thoroughly mixed to achieve a homogenous distribution of the test chemicals in the test soil.
Multigeneration tests started with a control, […] imidacloprid (0, 0.001, 0.003, 0.01, 0.03, 0.1, 0.3, 1.0 mg/kg dry soil) and 9 thiacloprid concentrations (0, 0.0015, 0.0045, 0.014, 0.041, 0.11, 0.31, 1.1, 3.3, 10.0 mg/kg dry soil). Batches of soil sufficient to perform three toxicity tests were prepared. After filling test jars for the parent generation exposure, the remaining spiked soil was stored in glass jars in a climate room at 20 °C for subsequent exposure of the next two generations. Moisture content of the spiked soil was checked regularly by weighing the jars, and replenished by adding deionized water if needed.
After 28 days (35 days for the second generation), the juveniles from the same exposure concentration were pooled in the same container with a moist plaster of Paris bottom and incubated overnight before being transferred to the next cycle of exposure. This experiment spanned a total of three continuous generations (referred to as F0, F1, and F2).

[6] = number of juveniles, with 95% confidence interval
[7] = 28-day exposure, Lufa 2.2, ~3.0% OM, pure, ref De Lima e Silva et al. (submitted)
[8] = F0 generation, 28 days, LUFA 2.2 soil, nominal concentrations
[9] = F1 and F2 generations, 3.3 mg/kg dry soil
[10] = F1 generation, 35 days, soil spiked at start of F0, nominal concentrations
[11] = F2 generation, 28 days, soil spiked at start of F0, nominal concentrations
[12] = F2 generation, 28 days, soil spiked at start of F0, nominal concentrations, listed as thiacloprid

OB(O)O [Boric acid, boric acid]
NOEC [1]: 20 mg/kg dry soil | EC10 [1, 6]: 29 (25–33) mg/kg dry soil | EC50 [1, 6]: 51 (47–54) mg/kg dry soil | EC50 ([2]; OECD artificial soil, value mentioned in the test guideline, ref OECD (2009)): 100 mg/kg dry soil

N#C/N=C1\SCCN1Cc1ccc(Cl)nc1 [Thiacloprid, thiacloprid]
field-based half-lives ([3]; field, ref European Commission (2004)): 9 to 27 days | half-life in soil ([3]; laboratory tests, ref Goulson (2013), Bonmatin et al. (2015)): 81.6 to 1780 h | factor less persistent in soil than imidacloprid ([3]; ref Goulson (2013), Bonmatin et al. (2015)): 10 | half-life ([4]; LUFA 2.2 soil (spiked natural loamy sand), pH 5.4, LUFA 2.2 soil, 20 °C, first order kinetics, read-out: DT50 (half-life) for degradation in test soil): 240 to 288 h | concentration, % of nominal ([4]; LUFA 2.2 soil, after 28 days, 1.1 and 3.3 mg/kg dry soil): 91.2–101% and 90–100% | concentration, % of the nominal values ([4]; LUFA 2.2 soil, after 63 days of incubation, all concentrations): 7.6–22.0% | concentration, % of the nominal concentration ([4]; LUFA 2.2 soil, 0.0137 mg/kg): 22.0% | concentration, % of the nominal concentration ([4]; LUFA 2.2 soil, 0.113 mg/kg): 19.8% | concentration measured in soil ([4]; T=28, nominal 1.11, mean ± SD (n=3)): 1.1±0.35 mg/kg dry soil | concentration measured in soil ([4]; T=28, nominal 3.33, mean ± SD (n=3)): 3.0±0.42 mg/kg dry soil | concentration measured in soil ([4]; T=28, nominal 10, mean ± SD (n=3)): 5.7±0.27 mg/kg dry soil | concentration measured in soil ([4]; T=63 d, nominal 0.014, mean ± SD (n=3)): 0.003±0.0002 mg/kg dry soil | concentration measured in soil ([4]; T=63 d, nominal 0.113, mean ± SD (n=3)): 0.022±0.00044 mg/kg dry soil | concentration measured in soil ([4]; T=63 d, nominal 1.11, mean ± SD (n=3)): 0.12±0.0054 mg/kg dry soil | concentration measured in soil ([4]; T=63 d, nominal 3.33, mean ± SD (n=3)): 0.26±0.0038 mg/kg dry soil | concentration measured in soil ([4]; T=63 d, nominal 10, mean ± SD (n=3)): 0.76±0.015 mg/kg dry soil | EC50 [2, 7]: 1.7-2.4 mg/kg dry soil | LC50 [2, 7]: 4.3-4.9 mg/kg dry soil | effect on reproduction ([5]; F0 generation, 3.3 mg/kg dry soil): significantly reduced | NOEC [5, 8]: 0.11 mg/kg dry soil | LC50 ([5]; F0 generation, 28 days, adult survival, LUFA 2.2 soil, nominal concentrations): 9.0 mg/kg dry soil | EC10 [5, 8]: 0.23 mg/kg dry soil | EC50 [5, 8]: 1.5 mg/kg dry soil | juveniles produced, on average ([5]; F0 generation, highest concentration tested 10 mg/kg dry soil): 3 per jar | effects on juvenile numbers [5, 9]: no effects | springtail reproduction affected [5, 9]: less than 50% | EC50 [5, 10]: > 3.33 mg/kg dry soil and > 3.3 mg/kg dry soil | LC50 [5, 10]: > 3.33 mg/kg dry soil and > 3.3 mg/kg dry soil | NOEC [5, 10]: ≥ 3.3 mg/kg dry soil | EC10 [5, 11]: >3.3 mg/kg dry soil | EC50 [5, 11]: >3.3 mg/kg dry soil | EC50 [5, 12]: > 3.33 mg/kg dry soil and > 3.3 mg/kg dry soil | LC50 [5, 11]: >3.3 mg/kg dry soil | LC50 [5, 12]: > 3.33 mg/kg dry soil and > 3.3 mg/kg dry soil | NOEC [5, 12]: 1.1 mg/kg dry soil | LC50, range over generations ([5]; range over the three generations, Lufa 2.2, pure compound, this study): >3.33-9.0 mg/kg dry soil
